Measurements published in ChEMBL document CHEMBL4507305, “Data for DCP probe TP-024” (2021).

Experiments:
[1] = target: Non-receptor tyrosine-protein kinase TNK1 (Homo sapiens) (UniProt Q13470); details: Compound concentration 1000.0 nM
[2] = target: Serine/threonine-protein kinase MAK (Homo sapiens) (UniProt P20794); details: Compound concentration 1000.0 nM
[3] = target: Tyrosine-protein kinase Srms (Homo sapiens) (UniProt Q9H3Y6); details: Compound concentration 1000.0 nM
[4] = target: Testis-specific serine/threonine-protein kinase 3 (Homo sapiens) (UniProt Q96PN8); details: Compound concentration 1000.0 nM
[5] = target: Ribosomal protein S6 kinase alpha-3 (Homo sapiens) (UniProt P51812); details: Compound concentration 1000.0 nM
[6] = target: Phosphatidylinositol 3-kinase catalytic subunit type 3 (Homo sapiens) (UniProt Q8NEB9); details: Compound concentration 1000.0 nM
[7] = system: Receptor-type tyrosine-protein kinase FLT3 (Homo sapiens), P36888 [N841I]; details: Compound concentration 1000.0 nM
[8] = system: Receptor-type tyrosine-protein kinase FLT3 (Homo sapiens), P36888 [K663Q]; details: Compound concentration 1000.0 nM
[9] = target: Dual specificity mitogen-activated protein kinase kinase 2 (Homo sapiens) (UniProt P36507); details: Compound concentration 1000.0 nM
[10] = target: Dual specificity testis-specific protein kinase 1 (Homo sapiens) (UniProt Q15569); details: Compound concentration 1000.0 nM
[11] = target: Mitogen-activated protein kinase 9 (Homo sapiens) (UniProt P45984); details: Compound concentration 1000.0 nM
[12] = target: Serine/threonine-protein kinase WNK4 (Homo sapiens) (UniProt Q96J92); details: Compound concentration 1000.0 nM
[13] = target: Ephrin type-A receptor 6 (Homo sapiens) (UniProt Q9UF33); details: Compound concentration 1000.0 nM
[14] = target: Muscarinic acetylcholine receptor M1 (Homo sapiens) (UniProt P11229); details: Compound concentration 10.0 uM
[15] = target: TGF-beta receptor type-1 (Homo sapiens) (UniProt P36897); details: Compound concentration 1000.0 nM
[16] = target: Serine/threonine-protein kinase MRCK alpha (Homo sapiens) (UniProt Q5VT25); details: Compound concentration 1000.0 nM
[17] = target: cGMP-dependent protein kinase 1 (Homo sapiens) (UniProt Q13976); details: Compound concentration 1000.0 nM
[18] = target: Alpha-2A adrenergic receptor (Homo sapiens) (UniProt P08913); details: Compound concentration 10.0 uM
[19] = system: Phosphatidylinositol 4,5-bisphosphate 3-kinase catalytic subunit alpha isoform (Homo sapiens), P42336 [H1047Y]; details: Compound concentration 1000.0 nM
[20] = target: Dual specificity protein kinase TTK (Homo sapiens) (UniProt P33981); details: Compound concentration 1000.0 nM
[21] = target: Interleukin-1 receptor-associated kinase 1 (Homo sapiens) (UniProt P51617); details: Compound concentration 1000.0 nM
[22] = target: Serine/threonine-protein kinase BRSK2 (Homo sapiens) (UniProt Q8IWQ3); details: Compound concentration 1000.0 nM
[23] = target: Serine/threonine-protein kinase PAK 3 (Homo sapiens) (UniProt O75914); details: Compound concentration 1000.0 nM
[24] = system: Phosphatidylinositol 4,5-bisphosphate 3-kinase catalytic subunit alpha isoform (Homo sapiens), P42336 [E545K]; details: Compound concentration 1000.0 nM
[25] = target: Focal adhesion kinase 1 (Homo sapiens) (UniProt Q05397); details: Compound concentration 1000.0 nM
[26] = target: Phosphorylase b kinase gamma catalytic chain, skeletal muscle/heart isoform (Homo sapiens) (UniProt Q16816); details: Compound concentration 1000.0 nM
[27] = target: Phosphatidylinositol 4,5-bisphosphate 3-kinase catalytic subunit gamma isoform (Homo sapiens) (UniProt P48736); details: Compound concentration 1000.0 nM
[28] = target: Serine/threonine-protein kinase tousled-like 2 (Homo sapiens) (UniProt Q86UE8); details: Compound concentration 1000.0 nM
[29] = target: Serine/threonine-protein kinase TBK1 (Homo sapiens) (UniProt Q9UHD2); details: Compound concentration 1000.0 nM
[30] = target: Rhodopsin kinase GRK7 (Homo sapiens) (UniProt Q8WTQ7); details: Compound concentration 1000.0 nM
[31] = target: Proto-oncogene tyrosine-protein kinase Src (Homo sapiens) (UniProt P12931); details: Compound concentration 1000.0 nM
[32] = target: Phosphatidylinositol 4-phosphate 3-kinase C2 domain-containing subunit beta (Homo sapiens) (UniProt O00750); details: Compound concentration 1000.0 nM
[33] = target: Phosphatidylinositol 4,5-bisphosphate 3-kinase catalytic subunit beta isoform (Homo sapiens) (UniProt P42338); details: Compound concentration 1000.0 nM
[34] = target: Serine/threonine-protein kinase Nek3 (Homo sapiens) (UniProt P51956); details: Compound concentration 1000.0 nM
[35] = target: Testis-specific serine/threonine-protein kinase 1 (Homo sapiens) (UniProt Q9BXA7); details: Compound concentration 1000.0 nM
[36] = target: Muscarinic acetylcholine receptor M5 (Homo sapiens) (UniProt P08912); details: Compound concentration 10.0 uM
[37] = target: Casein kinase I isoform alpha-like (Homo sapiens) (UniProt Q8N752); details: Compound concentration 1000.0 nM
[38] = target: Mitogen-activated protein kinase kinase kinase 19 (Homo sapiens) (UniProt Q56UN5); details: Compound concentration 1000.0 nM
[39] = target: Serine/threonine-protein kinase ULK2 (Homo sapiens) (UniProt Q8IYT8); details: Compound concentration 1000.0 nM
[40] = target: Serine/threonine-protein kinase 35 (Homo sapiens) (UniProt Q8TDR2); details: Compound concentration 1000.0 nM
[41] = target: Mitogen-activated protein kinase 10 (Homo sapiens) (UniProt P53779); details: Compound concentration 1000.0 nM
[42] = target: D(2) dopamine receptor (Homo sapiens) (UniProt P14416); details: Compound concentration 10.0 uM
[43] = target: Epidermal growth factor receptor (Homo sapiens) (UniProt P00533); details: Compound concentration 1000.0 nM
[44] = target: Tyrosine-protein kinase Blk (Homo sapiens) (UniProt P51451); details: Compound concentration 1000.0 nM

Chain of Mitogen-activated protein kinase 9 (Homo sapiens) (P45984 whole entry, looked up): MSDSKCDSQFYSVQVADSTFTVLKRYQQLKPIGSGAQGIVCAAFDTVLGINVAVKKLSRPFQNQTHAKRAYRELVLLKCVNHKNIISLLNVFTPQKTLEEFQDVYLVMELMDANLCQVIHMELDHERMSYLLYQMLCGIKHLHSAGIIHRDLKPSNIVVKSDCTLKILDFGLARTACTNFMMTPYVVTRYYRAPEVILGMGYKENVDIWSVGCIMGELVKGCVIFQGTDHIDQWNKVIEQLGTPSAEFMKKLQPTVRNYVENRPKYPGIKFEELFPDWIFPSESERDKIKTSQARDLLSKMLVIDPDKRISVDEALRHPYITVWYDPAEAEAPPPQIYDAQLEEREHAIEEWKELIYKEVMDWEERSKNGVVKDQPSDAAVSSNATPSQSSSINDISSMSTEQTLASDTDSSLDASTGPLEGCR
Chain of Phosphatidylinositol 4-phosphate 3-kinase C2 domain-containing subunit beta (Homo sapiens) (O00750 whole entry, the tested form may be a part, canonical isoform): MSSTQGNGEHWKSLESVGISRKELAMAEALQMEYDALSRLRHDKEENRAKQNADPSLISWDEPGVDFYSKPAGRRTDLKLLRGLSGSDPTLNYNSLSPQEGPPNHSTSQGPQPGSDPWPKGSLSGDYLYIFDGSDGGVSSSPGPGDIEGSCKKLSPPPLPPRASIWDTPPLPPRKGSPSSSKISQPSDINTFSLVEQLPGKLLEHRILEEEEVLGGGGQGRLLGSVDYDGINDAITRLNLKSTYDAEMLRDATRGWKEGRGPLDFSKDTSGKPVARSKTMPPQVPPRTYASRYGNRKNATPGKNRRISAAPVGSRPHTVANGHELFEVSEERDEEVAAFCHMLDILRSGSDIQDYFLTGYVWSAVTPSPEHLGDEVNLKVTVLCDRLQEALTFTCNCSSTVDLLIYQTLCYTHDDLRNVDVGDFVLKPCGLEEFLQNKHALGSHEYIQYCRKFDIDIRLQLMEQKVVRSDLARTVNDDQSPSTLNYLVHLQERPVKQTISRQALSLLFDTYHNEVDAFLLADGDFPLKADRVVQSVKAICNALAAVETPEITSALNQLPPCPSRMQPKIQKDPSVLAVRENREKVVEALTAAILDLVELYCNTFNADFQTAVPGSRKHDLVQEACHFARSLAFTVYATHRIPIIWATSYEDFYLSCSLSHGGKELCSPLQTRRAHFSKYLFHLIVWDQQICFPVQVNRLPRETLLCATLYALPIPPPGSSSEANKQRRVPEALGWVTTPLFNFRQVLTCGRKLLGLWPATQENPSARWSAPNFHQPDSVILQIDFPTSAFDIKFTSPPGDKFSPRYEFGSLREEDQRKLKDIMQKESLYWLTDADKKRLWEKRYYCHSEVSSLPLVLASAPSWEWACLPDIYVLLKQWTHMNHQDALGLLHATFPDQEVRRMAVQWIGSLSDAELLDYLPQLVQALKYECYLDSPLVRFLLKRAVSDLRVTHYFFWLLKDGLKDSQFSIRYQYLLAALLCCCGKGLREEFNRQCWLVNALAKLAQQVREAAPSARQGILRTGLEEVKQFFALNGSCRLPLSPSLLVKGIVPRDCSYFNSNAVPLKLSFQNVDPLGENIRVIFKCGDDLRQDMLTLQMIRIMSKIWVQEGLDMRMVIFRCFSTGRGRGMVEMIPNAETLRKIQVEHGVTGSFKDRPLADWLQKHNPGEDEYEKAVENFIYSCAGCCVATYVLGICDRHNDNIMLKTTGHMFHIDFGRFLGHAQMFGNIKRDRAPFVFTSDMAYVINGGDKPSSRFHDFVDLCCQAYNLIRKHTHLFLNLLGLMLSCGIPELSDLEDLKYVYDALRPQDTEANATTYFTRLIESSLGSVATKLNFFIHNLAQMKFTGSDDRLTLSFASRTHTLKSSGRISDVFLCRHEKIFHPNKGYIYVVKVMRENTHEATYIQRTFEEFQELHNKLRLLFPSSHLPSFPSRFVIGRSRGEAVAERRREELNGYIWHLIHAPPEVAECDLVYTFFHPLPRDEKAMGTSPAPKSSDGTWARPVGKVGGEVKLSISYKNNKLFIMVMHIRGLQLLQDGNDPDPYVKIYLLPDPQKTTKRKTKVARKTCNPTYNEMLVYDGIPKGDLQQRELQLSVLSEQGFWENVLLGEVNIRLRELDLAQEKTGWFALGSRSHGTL
Chain of Ribosomal protein S6 kinase alpha-3 (Homo sapiens) (P51812 whole entry): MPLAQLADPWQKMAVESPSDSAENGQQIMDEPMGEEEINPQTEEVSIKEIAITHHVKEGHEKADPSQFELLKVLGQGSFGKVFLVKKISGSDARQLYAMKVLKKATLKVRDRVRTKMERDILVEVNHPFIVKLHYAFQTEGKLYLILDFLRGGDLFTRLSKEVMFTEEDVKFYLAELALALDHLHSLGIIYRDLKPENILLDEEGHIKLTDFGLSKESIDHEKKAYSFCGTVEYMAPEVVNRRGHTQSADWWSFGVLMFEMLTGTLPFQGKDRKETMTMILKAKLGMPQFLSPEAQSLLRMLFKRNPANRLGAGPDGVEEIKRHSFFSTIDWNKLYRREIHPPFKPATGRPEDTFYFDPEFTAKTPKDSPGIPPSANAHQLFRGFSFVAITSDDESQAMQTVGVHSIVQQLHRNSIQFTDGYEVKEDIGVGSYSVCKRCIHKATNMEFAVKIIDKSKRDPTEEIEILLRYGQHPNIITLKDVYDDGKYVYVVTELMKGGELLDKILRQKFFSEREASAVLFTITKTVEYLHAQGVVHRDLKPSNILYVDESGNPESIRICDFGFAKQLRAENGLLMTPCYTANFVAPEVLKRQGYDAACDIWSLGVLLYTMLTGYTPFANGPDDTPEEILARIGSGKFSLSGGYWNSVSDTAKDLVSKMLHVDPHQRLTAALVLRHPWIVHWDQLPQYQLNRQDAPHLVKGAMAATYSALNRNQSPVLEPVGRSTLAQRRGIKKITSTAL
Chain of D(2) dopamine receptor (Homo sapiens) (P14416 whole entry): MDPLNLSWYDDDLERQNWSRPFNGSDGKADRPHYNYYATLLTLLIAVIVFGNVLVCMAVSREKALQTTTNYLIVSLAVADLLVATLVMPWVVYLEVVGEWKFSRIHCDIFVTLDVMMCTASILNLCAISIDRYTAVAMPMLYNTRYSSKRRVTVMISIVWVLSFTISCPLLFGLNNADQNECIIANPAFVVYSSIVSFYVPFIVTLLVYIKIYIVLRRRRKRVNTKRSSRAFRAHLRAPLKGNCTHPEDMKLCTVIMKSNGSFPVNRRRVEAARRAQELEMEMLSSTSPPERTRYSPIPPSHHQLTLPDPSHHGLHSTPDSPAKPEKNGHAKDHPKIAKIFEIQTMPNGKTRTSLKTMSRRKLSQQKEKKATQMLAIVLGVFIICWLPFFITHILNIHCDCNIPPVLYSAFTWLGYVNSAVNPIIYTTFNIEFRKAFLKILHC
Chain of Phosphatidylinositol 4,5-bisphosphate 3-kinase catalytic subunit gamma isoform (Homo sapiens) (P48736 whole entry, looked up, canonical isoform): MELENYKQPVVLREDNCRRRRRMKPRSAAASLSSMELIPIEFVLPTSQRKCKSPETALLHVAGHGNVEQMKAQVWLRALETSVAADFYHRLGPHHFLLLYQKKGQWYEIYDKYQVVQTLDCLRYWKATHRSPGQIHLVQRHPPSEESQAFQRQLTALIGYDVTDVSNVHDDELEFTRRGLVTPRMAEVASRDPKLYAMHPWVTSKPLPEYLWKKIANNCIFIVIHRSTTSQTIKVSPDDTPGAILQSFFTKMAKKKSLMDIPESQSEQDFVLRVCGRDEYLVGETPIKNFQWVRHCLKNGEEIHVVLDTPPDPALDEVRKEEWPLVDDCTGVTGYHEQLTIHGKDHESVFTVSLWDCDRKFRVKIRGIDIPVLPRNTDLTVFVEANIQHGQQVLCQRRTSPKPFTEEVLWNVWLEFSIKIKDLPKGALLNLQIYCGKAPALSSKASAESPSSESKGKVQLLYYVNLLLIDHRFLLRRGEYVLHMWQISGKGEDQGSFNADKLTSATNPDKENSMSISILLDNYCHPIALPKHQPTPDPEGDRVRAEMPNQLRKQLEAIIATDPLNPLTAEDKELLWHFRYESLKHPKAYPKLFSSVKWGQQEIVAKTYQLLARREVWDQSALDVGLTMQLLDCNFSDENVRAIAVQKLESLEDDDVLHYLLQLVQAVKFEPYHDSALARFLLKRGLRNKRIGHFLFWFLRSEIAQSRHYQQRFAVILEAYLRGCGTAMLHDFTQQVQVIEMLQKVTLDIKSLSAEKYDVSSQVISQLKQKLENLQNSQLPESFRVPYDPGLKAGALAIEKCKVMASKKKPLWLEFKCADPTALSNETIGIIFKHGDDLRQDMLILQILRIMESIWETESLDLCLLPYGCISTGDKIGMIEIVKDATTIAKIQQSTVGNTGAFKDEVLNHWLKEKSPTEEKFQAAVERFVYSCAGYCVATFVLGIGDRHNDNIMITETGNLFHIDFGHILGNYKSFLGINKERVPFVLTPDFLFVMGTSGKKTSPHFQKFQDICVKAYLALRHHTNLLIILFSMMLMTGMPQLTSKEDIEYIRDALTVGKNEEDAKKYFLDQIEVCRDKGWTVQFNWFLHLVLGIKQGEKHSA
Chain of Serine/threonine-protein kinase BRSK2 (Homo sapiens) (Q8IWQ3 whole entry): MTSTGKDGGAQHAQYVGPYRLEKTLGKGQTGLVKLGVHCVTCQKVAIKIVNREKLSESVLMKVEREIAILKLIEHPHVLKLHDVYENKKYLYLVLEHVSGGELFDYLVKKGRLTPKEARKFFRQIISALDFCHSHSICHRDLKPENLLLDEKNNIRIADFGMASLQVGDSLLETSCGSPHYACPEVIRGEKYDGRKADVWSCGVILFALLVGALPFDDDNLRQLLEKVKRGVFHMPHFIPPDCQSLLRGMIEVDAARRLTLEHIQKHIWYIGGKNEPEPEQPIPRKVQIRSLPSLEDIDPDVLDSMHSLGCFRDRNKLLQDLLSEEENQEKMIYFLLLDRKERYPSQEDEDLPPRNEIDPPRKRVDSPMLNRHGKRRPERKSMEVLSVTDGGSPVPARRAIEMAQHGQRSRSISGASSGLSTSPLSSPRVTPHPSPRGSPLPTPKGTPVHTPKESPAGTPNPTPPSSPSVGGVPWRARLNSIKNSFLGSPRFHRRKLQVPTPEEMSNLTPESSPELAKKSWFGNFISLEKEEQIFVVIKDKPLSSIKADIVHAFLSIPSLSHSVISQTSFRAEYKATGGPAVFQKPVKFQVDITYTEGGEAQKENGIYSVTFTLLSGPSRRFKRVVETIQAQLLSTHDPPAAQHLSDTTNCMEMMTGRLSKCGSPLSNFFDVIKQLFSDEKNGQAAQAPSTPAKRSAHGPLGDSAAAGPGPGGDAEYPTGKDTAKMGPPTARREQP

Cc1cc(-n2nc(Cc3cc(F)cc(C(F)(F)F)c3)nc2C)ccc1C(N)=O [TP-024]
inactive: residual activity [1] 69% | residual activity [2] 100% | residual activity [3] 98% | residual activity [4] 55% | residual activity [5] 100% | residual activity [6] 100% | residual activity [7] 99% | residual activity [8] 100% | residual activity [9] 100% | residual activity [10] 100% | residual activity [11] 81% | residual activity [12] 100% | residual activity [13] 100% | inhibition [14] -7.57% | residual activity [15] 94% | residual activity [16] 100% | residual activity [17] 100% | inhibition [18] 8.93% | residual activity [19] 78% | residual activity [20] 90% | residual activity [21] 100% | residual activity [22] 77% | residual activity [23] 100% | residual activity [24] 71% | residual activity [25] 100% | residual activity [26] 98% | residual activity [27] 79% | residual activity [28] 100% | residual activity [29] 89% | residual activity [30] 100% | residual activity [31] 95% | residual activity [32] 87% | residual activity [33] 85% | residual activity [34] 100% | residual activity [35] 90% | inhibition [36] -2.07% | residual activity [37] 100% | residual activity [38] 98% | residual activity [39] 100% | residual activity [40] 100% | residual activity [41] 100% | inhibition [42] 0.68% | residual activity [43] 100% | residual activity [44] 100%

Cc1nc(Cc2cccc(C(F)(F)F)c2)sc1-c1ccc(C(N)=O)nc1 [TP-024n]
inactive: residual activity [1] 85% | residual activity [2] 81% | residual activity [3] 77% | residual activity [4] 100% | residual activity [5] 99% | residual activity [6] 100% | residual activity [7] 86% | residual activity [8] 88% | residual activity [9] 98% | residual activity [10] 88% | residual activity [11] 100% | residual activity [12] 100% | residual activity [13] 96% | inhibition [14] 10% | residual activity [15] 90% | residual activity [16] 81% | residual activity [17] 87% | inhibition [18] 4.44% | residual activity [19] 100% | residual activity [20] 82% | residual activity [21] 100% | residual activity [22] 72% | residual activity [23] 100% | residual activity [24] 77% | residual activity [25] 95% | residual activity [26] 84% | residual activity [27] 78% | residual activity [28] 82% | residual activity [29] 91% | residual activity [30] 100% | residual activity [31] 80% | residual activity [32] 82% | residual activity [33] 83% | residual activity [34] 100% | residual activity [35] 54% | inhibition [36] 11.2% | residual activity [37] 100% | residual activity [38] 100% | residual activity [39] 100% | residual activity [40] 100% | residual activity [41] 100% | inhibition [42] -5.26% | residual activity [43] 100% | residual activity [44] 100%
